Patent US10440955B2, “Methods comprising a biocidal polyamine” (Curza Global, LLC, priority 2013, dated 2019)
“And” between values parts separate entries of the source, which are not always exact repeats. Equal values may be shown once. Where a name gives a salt, the structure may show the parent alone.

What was measured:
Format in all cases: cell-based
P. aeruginosa biofilms = test: EBEC, high number biofilms on PEEK membranes, 10^9 to 10^2 CFU/PEEK membrane in 24 hours; conditions: Pseudomonas aeruginosa; Table 3B c3; group head missing; read-out: MICs (μg/mL) II: P. aeruginosa
Method: In addition to determining the MIC and the MBEC of polyamine compounds against planktonic bacteria and low number biofilms, our group wanted to determine the efficacy of polyamine compounds against high number biofilms. To do so, biofilms were grown on the surface of polyetheretherketone (PEEK) membranes using a membrane biofilm reactor. This reactor is similar to the CDC biofilm reactor, but rather than growing biofilms on coupon surfaces, the reactor was modified to hold PEEK membranes. In short, to grow biofilms within this system, 500 mL of brain heart infusion (BHI) broth were inoculated with 1 mL of a 0.5 McFarland. The reactor was placed on a hot plate set at 34° C. and the bacteria were grown under batch conditions for 24 hours. Following this protocol, biofilms typically grow to 10^9 CFU/PEEK membrane. […] A solution of 10% BHI was then flowed through the reactor at a rate of 6.94 mL/min for an additional 24 hours. PEEK membranes were then removed and placed into 2 mL of CAMHB that contained a desired concentration of polyamine compound or antibiotic. The EBEC was defined as the concentration of antimicrobial required to reduce a biofilm from approximately 10^9 CFU/PEEK membrane to approximately 10^2 CFU/PEEK membrane in a 24-hour period.

MRSA = test: MIC, microdilution CLSI M26-A (Example 2); conditions: Staphylococcus aureus, 24 h, read-out: MIC (μg/mL/μM)
Method: The second test determined the minimum inhibitory concentration (MIC) of the compound against MRSA and P. aeruginosa ATCC 27853. […] This definition was consistent with the Clinical and Laboratory Standards Institute (CLSI). More specifically, the microdilution method as outlined in the M26-A CLSI guideline was used. All tests were performed with cation adjusted Mueller Hinton broth.

human blood = test: Hemolysis test with diluted human blood (ISO 10993-4)
From the text: Procedure: The PBS used in testing was calcium and magnesium free. The method has been validated using human blood from one donor. This is in compliance with ISO 10993-4 which states due to differences in blood activity, human blood should be used where possible. Furthermore, pooling unmatched human blood from multiple donors may cause red blood cell agglutination which in turn could cause hemolysis; this supports the use of a single donor.
The blood was drawn using vacutainers containing 0.1 M sodium citrate at a ratio of 9:1 (3.2% anticoagulant to blood). The blood in this test was used within four hours of blood draw. The collected blood was refrigerated until testing was performed.
A hemoglobin standard was diluted with Drabkin's reagent to give solutions at concentrations of 0.80, 0.60, 0.40, 0.30, 0.20, 0.10, 0.02, and 0.01 mg/ml. These solutions were allowed to stand at room temperature for a minimum of five minutes. The absorbance was read on a spectrophotometer at 540 nanometers (nm). A standard curve was determined with the absorbance values and the standard concentrations of hemoglobin.
Human blood was centrifuged at 700-800×g for 15 minutes. A 1 mL aliquot of the plasma was added into 1 mL of Drabkin's reagent, and placed at room temperature for a minimum of 15 minutes. The absorbance was read on a spectrophotometer at 540 nm. The hemoglobin concentration was determined from the standard curve and then multiplied by a factor of 2 to obtain the total plasma free hemoglobin. The plasma free hemoglobin was less than 2 mg/mL (actual value 0.221 mg/mL). A 20 μL aliquot of blood was added to 5 mL of Drabkin's reagent in duplicate and allowed to stand at room temperature for a minimum of 15 minutes. The absorbance was read on a spectrophotometer at 540 nm then multiplied by 251 to account for the dilution.
Based on the plasma hemoglobin and the blood absorbance against Drabkin's reagent, the blood was diluted out to 10±1 mg/mL with PBS. To verify the blood dilution, a 300 μL aliquot of this blood was added to 4.5 mL of Drabkin's reagent in triplicate and allowed to stand at room temperature for a minimum of 15 minutes. The absorbance was read on a spectrophotometer at 540 nm then multiplied by 16 to account for the dilution.
Glass test tubes were labeled appropriately. Both samples were prepared the same way. The samples were allowed to thaw prior to testing. To each test tube, 7 mL of the test article and 1 mL of the diluted blood were added. The controls consisted of the appropriate amount of control material, 7 mL of PBS and 1 mL of blood. Three tubes were prepared for each test article and control. The tubes were incubated at 37±2° C. for 3 hours±5 minutes. Tubes were gently inverted twice at 30 minute intervals throughout the incubation period. A non-hemolytic negative control, a hemolytic positive control and a PBS blank were included.
After incubation, test articles were centrifuged at 700-800×g for 15 minutes and 1 mL of the supernatant fluid was combined with 1 mL of Drabkin's reagent and allowed to stand at room temperature for a minimum of 15 minutes. Following the centrifugation phase, the supernatant of both test articles visually appeared clear and were particulate free. The PBS blank and the negative control supernatant visually appeared clear and were particulate free. The supernatant of the positive control visually appeared red and were particulate free. The test articles and controls were read at 540 nm in a spectrophotometer.
The hemolytic index (percent hemolysis) was interpreted using the following equation:
[formula] Where: Hemoglobin Released (mg/mL)=(Optical Density×X Coefficient+Constant)×16 Hemoglobin Present (mg/ml)=Diluted Blood 10±1 mg/mL
The corrected hemolytic index was calculated by subtracting the hemolytic index of the PBS blank solution from the hemolytic index of the test article and controls. […]

## NCCCNCCCNCc1ccccc1 [CZ-7, benzylnorspermidine]
P. aeruginosa biofilms
  MIC: > 5000 µg/mL

## CN[C@H](CC(C)C)C(=O)N[C@H]1C(=O)N[C@@H](CC(N)=O)C(=O)N[C@H]2C(=O)N[C@H]3C(=O)N[C@H](C(=O)N[C@H](C(=O)O)c4cc(O)cc(O)c4-c4cc3ccc4O)[C@H](O)c3ccc(c(Cl)c3)Oc3cc2cc(c3O[C@@H]2O[C@H](CO)[C@@H](O)[C@H](O)[C@H]2O[C@H]2C[C@](C)(N)[C@H](O)[C@H](C)O2)Oc2ccc(cc2Cl)[C@H]1O [vancomycin, reference compound]
MRSA
  MIC: 10 µg/mL and 6.73 µM

## CC(C)CNCCCNCCCNCc1cc(CNCCCNCCCNCC(C)C)cc(-c2ccccc2)c1 [CZ-86, N^1,N^1′-([1,1′-biphenyl]-3,5-diylbis(methylene))bis(N^3-(3-(isobutylamino)propyl)propane-1,3-diamine), hydrochloride salt]
Human blood
  Average Hemolytic Index (% Hemolysis): 0.76 % Hemolysis
  Hemolytic Grade: non-hemolytic
  difference between the hemolytic indexes of test article and negative control: 0.00%
Human blood; 540 nm
  Average Optical Density: 0.003
Human blood; 540 nm, three tubes, 37 ± 2° C., 3 hours
  Optical Density: 0.003
Human blood; hemolytic index of the PBS blank subtracted
  Corrected Hemolytic Index (% Hemolysis): 0.00 % Hemolysis
Human blood; three tubes
  Hemolytic Index: 0.764
